Among the test systems are RXF 393; OVCAR-8; BT-549; KM12; OVCAR-3; A549; CAKI-1; Malme-3M; HCC 2998; HT-29; MCF7; HL-60; HOP-92; NCI/ADR-RES; TK-10; SF-295; SK-MEL-5; NCI-H226; DMS-114; DMS-273.
Holding throughout (assay): NCI-60 cell line screen, 48 h

These results are taken from ChEMBL document CHEMBL1201862, “PubChem BioAssay data set” (2004).

SMILES strings stand for the structures.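 Five compound concentrations were applied to cells in 96-well plates for 48 hours; endpoints were derived by simple linear interpolation of the resulting dose-response curve. GI50 marks 50% less growth.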 Active and inactive are the calls of the source. No stated cut-off is given here; in the data, active = GI50 up to about 1.1 µM and inactive = higher.

In the case of `CC(C)(CCc1nc2ccccc2[nH]1)C(=O)O`, the GI50 in the assay on RXF 393, in the assay with OVCAR-8, in the assay with BT-549, in the assay on KM12, with OVCAR-3 and in the assay on A549 was > 100 µM (inactive) in each case. In addition, the GI50 with CAKI-1, in the assay with Malme-3M, in the assay on HCC 2998, in the assay on HT-29, with MCF7 and in the assay with HL-60 was > 100 µM (inactive) each time. In addition, the GI50 in the assay on HOP-92, with NCI/ADR-RES, in the assay with TK-10, in the assay on SF-295, with SK-MEL-5 and in the assay on NCI-H226 was > 100 µM (inactive) in each case.

`COc1ccc(N/N=C(\CCN(C)C)c2ccccc2)cc1`: the GI50 in the assay on RXF 393 was 15.7 µM (inactive); with OVCAR-8 it was 12.8 µM (inactive); in the assay with KM12 it was 4.73 µM (inactive); in the assay with OVCAR-3, 2.81 µM (inactive); with A549, 1.67 µM (inactive); in the assay with Malme-3M it was 11.7 µM (inactive). For the same molecule, the GI50 is 10.9 µM (inactive) in the assay on DMS-114; 6.85 µM (inactive) with HT-29; 3 µM (inactive) with DMS-273; 2.82 µM (inactive) in the assay with HL-60; 2.23 µM (inactive) with TK-10; 0.437 µM (active) in the assay with SF-295. For the same molecule, in the assay on SK-MEL-5, the GI50 is 6.37 µM (inactive).

Turning to `Cn1nc(-c2ccccc2)c2c(/C=C/c3ccccc3)onc2c1=O`, the GI50 with RXF 393 was 46.1 µM (inactive); in the assay on OVCAR-8, 33.7 µM (inactive); with KM12, > 100 µM (inactive); in the assay with OVCAR-3 it was 50.6 µM (inactive); in the assay with A549, > 100 µM (inactive); in the assay with CAKI-1 it was 69 µM (inactive). Further, the GI50 with Malme-3M was 71.4 µM (inactive); in the assay with DMS-114 it was 98.4 µM (inactive); with HCC 2998, 83.6 µM (inactive); in the assay with HT-29, > 100 µM (inactive); in the assay with HL-60, > 100 µM (inactive); with HOP-92 it was 33 µM (inactive). The GI50 is > 100 µM (inactive) with TK-10, 38.9 µM (inactive) in the assay on SF-295, > 100 µM (inactive) in the assay on SK-MEL-5 and > 100 µM (inactive) in the assay on NCI-H226.

`CC(C)(C)c1cc(COc2c3sc(=S)sc3c(OCc3cc(C(C)(C)C)cc(C(C)(C)C)c3)c3sc(=S)sc23)cc(C(C)(C)C)c1`: the GI50 with RXF 393, in the assay with OVCAR-8, with OVCAR-3, in the assay on A549, in the assay with CAKI-1 and with HCC 2998 was > 100 µM (inactive) throughout. The GI50 with HT-29, with DMS-273, with HL-60, in the assay on TK-10, in the assay with SF-295 and in the assay with SK-MEL-5 was > 100 µM (inactive) throughout.

Take `c1cnc2c(c1)-n1cccc1C1(CCSC1)NN2` (centres undefined): the GI50 in the assay with OVCAR-8, in the assay with KM12, in the assay on OVCAR-3, in the assay with A549, in the assay with CAKI-1 and in the assay with Malme-3M was > 100 µM (inactive) in each case. The GI50 in the assay on DMS-114, in the assay with HCC 2998, in the assay with HT-29, in the assay with DMS-273, with HL-60 and with TK-10 was > 100 µM (inactive) in each case. Moreover, the GI50 with SF-295, in the assay on SK-MEL-5 and with NCI-H226 was > 100 µM (inactive) each time.

Consider `CC(=O)C1C(=O)C(=O)N(c2ccccc2N2C(=O)C(=O)C(C(C)=O)C2=O)C1=O` (centres undefined), for which the GI50 with RXF 393, in the assay with OVCAR-8, in the assay with KM12, in the assay with OVCAR-3, with A549 and with CAKI-1 was > 100 µM (inactive) in each case. For the same molecule, the GI50 in the assay on Malme-3M, in the assay with DMS-114, in the assay on HCC 2998, with HT-29, in the assay on HL-60 and in the assay with HOP-92 was > 100 µM (inactive) throughout. In addition, the GI50 in the assay with TK-10, with SF-295, with SK-MEL-5 and with NCI-H226 was > 100 µM (inactive) throughout.

Take `CC(C)c1ccc(/C=C2\CSCC3=C2N=C(S)NC3c2ccc(C(C)C)cc2)cc1` (centres undefined): the GI50 is 30.9 µM (inactive) in the assay on RXF 393; > 100 µM (inactive) in the assay with OVCAR-8; > 100 µM (inactive) with BT-549; > 100 µM (inactive) with KM12; > 100 µM (inactive) in the assay with OVCAR-3; 80.9 µM (inactive) in the assay with A549. The GI50 in the assay on CAKI-1 was > 100 µM (inactive); in the assay with Malme-3M, 36.1 µM (inactive); in the assay with HCC 2998, 67.6 µM (inactive); with HT-29 it was 45.1 µM (inactive); with MCF7 it was 88.3 µM (inactive); in the assay with HL-60, 59.2 µM (inactive). In addition, the GI50 was 68.5 µM (inactive) in the assay on HOP-92; > 100 µM (inactive) in the assay on NCI/ADR-RES; > 100 µM (inactive) in the assay on TK-10; 75.9 µM (inactive) in the assay with SF-295; 27.2 µM (inactive) with SK-MEL-5; > 100 µM (inactive) in the assay with NCI-H226.

For the molecule `COc1ccc(NC(=S)N/N=C(\c2ccccc2)c2ccccn2)cc1`, the GI50 with RXF 393 is 0.603 µM (active); in the assay with OVCAR-8 it was 0.0218 µM (active); in the assay with BT-549 it was 4.94 µM (inactive); with KM12 it was 0.0479 µM (active); in the assay on OVCAR-3, < 0.01 µM (active); in the assay with A549, 0.128 µM (active). For the same molecule, the GI50 in the assay with CAKI-1 was 0.034 µM (active); with Malme-3M, 0.172 µM (active); in the assay with HCC 2998, 2.42 µM (inactive); in the assay on HT-29, < 0.0118 µM (active); in the assay with MCF7, < 0.01 µM (active); with HL-60, < 0.01 µM (active). Moreover, the GI50 was 0.224 µM (active) in the assay on HOP-92; < 0.0904 µM (active) with NCI/ADR-RES; 0.0244 µM (active) in the assay on TK-10; 0.121 µM (active) with SF-295; 0.0432 µM (active) with SK-MEL-5; 0.0753 µM (active) in the assay with NCI-H226.

With `CC(C)OP(=O)(OC(C)C)/C(=N/Nc1ccc([N+](=O)[O-])cc1)NCCN/C(=N\Nc1ccc([N+](=O)[O-])cc1)P(=O)(OC(C)C)OC(C)C`, the GI50 was 4.55 µM (inactive) with OVCAR-8; 3.8 µM (inactive) in the assay on KM12; 3.62 µM (inactive) in the assay with OVCAR-3; 3.72 µM (inactive) with A549; 3.58 µM (inactive) with CAKI-1; 8.83 µM (inactive) in the assay with Malme-3M. Besides, the GI50 is 3.85 µM (inactive) with DMS-114; 5.4 µM (inactive) in the assay with HCC 2998; 3.7 µM (inactive) in the assay with DMS-273; 3.94 µM (inactive) in the assay with HL-60; 3.35 µM (inactive) with HOP-92; 6.03 µM (inactive) in the assay with TK-10. The GI50 is 6.22 µM (inactive) in the assay with SK-MEL-5 and 3.94 µM (inactive) in the assay on NCI-H226.

Consider `N#CC1(c2nc3ccccc3o2)C(=O)C(=O)N(c2ccc(Cl)c(Cl)c2)C(=O)C1=O`, for which the GI50 with RXF 393, in the assay with OVCAR-8, with KM12, in the assay with OVCAR-3, in the assay on A549 and in the assay on CAKI-1 was > 100 µM (inactive) throughout. Besides, the GI50 is > 100 µM (inactive) in the assay on Malme-3M; > 100 µM (inactive) with HCC 2998; > 100 µM (inactive) with HT-29; > 100 µM (inactive) with DMS-273; 26 µM (inactive) with HL-60; 12.2 µM (inactive) in the assay with HOP-92. Further, the GI50 in the assay on TK-10, in the assay with SF-295, in the assay with SK-MEL-5 and in the assay on NCI-H226 was > 100 µM (inactive) each time.

With `CC(C)N1C(C)[C@@H](c2ccccc2)O[P@@]1(=O)CC1=CCCCC1` (some centres undefined), the GI50 in the assay on RXF 393 was 68.7 µM (inactive); in the assay on OVCAR-8 it was > 100 µM (inactive); with KM12, > 100 µM (inactive); with OVCAR-3, 79.3 µM (inactive); with A549, > 100 µM (inactive); in the assay with Malme-3M, > 100 µM (inactive). The GI50 with DMS-114 was 51.4 µM (inactive); in the assay with HCC 2998, > 100 µM (inactive); with HT-29 it was > 100 µM (inactive); in the assay with HL-60, 24.1 µM (inactive); with HOP-92 it was 45.8 µM (inactive); with TK-10 it was > 100 µM (inactive). Also, the GI50 in the assay with SF-295 is 57 µM (inactive); with SK-MEL-5, 55.6 µM (inactive); in the assay with NCI-H226, > 100 µM (inactive).

Consider `O=C(NCCc1ccccc1)c1cc(/C=C/c2cc(O)ccc2O)ccc1O`, for which the GI50 is 1.93 µM (inactive) in the assay with RXF 393; 3.85 µM (inactive) with OVCAR-8; 1.78 µM (inactive) in the assay on BT-549; 6.05 µM (inactive) in the assay on KM12; 2.67 µM (inactive) with OVCAR-3; 10.3 µM (inactive) with A549. Also, the GI50 is 2.94 µM (inactive) with CAKI-1; 2.22 µM (inactive) in the assay with Malme-3M; 10.1 µM (inactive) in the assay with HCC 2998; 18.3 µM (inactive) with HT-29; 2.62 µM (inactive) in the assay on MCF7; 2.12 µM (inactive) with HL-60. For the same molecule, the GI50 in the assay with HOP-92 is 1.87 µM (inactive); in the assay with NCI/ADR-RES, 3.43 µM (inactive); in the assay on TK-10, 2.93 µM (inactive); with SF-295 it was 15.9 µM (inactive); in the assay with SK-MEL-5, 2.74 µM (inactive); with NCI-H226 it was 9.66 µM (inactive).
